Laboratory results taken from US20100087546A1, “USE OF DIMETHYL SULFONE (MSM) TO REDUCE HO[…]” (BIOGENIC INNOVATIONS, LLC, priority 2005, published 2010).
Entries after “also recorded” stand apart in the source; their conditions may differ.

Legend:
Assay type in all cases: in vivo, human
homocysteine = test: Serum homocysteine measured at baseline and 12 weeks in the 2005 osteoarthritis study; conditions: 6 g/day, baseline versus 12 weeks, FIG. 2
From the text: (§1) In 2005, Applicant commissioned a study to determine the efficacy of dimethyl sulfone in the treatment of pain and physical function impairment due to osteoarthritis. The results of the study are published in Kim, et al, Efficacy of methylsulfonylmethane (MSM) in osteoarthritis pain of the knee: a pilot clinical trial. OsteoArthritis and Cartilage, herein incorporated by reference in its entirety. Patients were given dosage of 6 g of dimethyl sulfone (Distilled MSM microprill (OptiMSM®, Cardinal Nutrition, Vancouver, Wash.)) per day in a stepwise approach. In week 1, dosages started with 2 g/day in two divided doses for 3 days, and then increased to 4 g/day for 4 days. Week 2, increased to 6 g/day. In the control group, a placebo was administered that consisted of inert ingredients and that was indistinguishable in color, size and taste from the dimethyl sulfone.
(§2) During the 2005 osteoarthritis study, described above, dimethyl sulfone's potential activities were also evaluated. Serum homocysteine, high sensitive C-reactive protein (CRP), erythrocyte sedimentation rate (ESR), and urine malondialdehyde (MDA) were measured at baseline and 12 weeks.
Since dimethyl sulfone is a putative methyl donor, it was believed that dimethyl sulfone may act as a co-factor in reducing homocysteine levels. […]

malondialdehyde (MDA) = test: Urine malondialdehyde (MDA) measured at baseline and 12 weeks in the 2005 osteoarthritis study; conditions: 6 g/day, baseline versus 12 weeks
From the text: as §1, §2
The combined decreases in homocysteine and urine MDA during the 2005 osteoarthritis study supports the role of dimethyl sulfone in metabolic processes requiring methylation, such as antioxidant capacities. […]

[1] = system: osteoarthritis pain of the knee; test: 12-week randomized, double-blind, placebo-controlled trial in osteoarthritis of the knee (WOMAC pain and physical function); conditions: 3 g twice a day (6 g/day) for 12 weeks, oral, OA of the knee, versus placebo
From the text: as §1
In a study directed by Applicant or its related affiliate, and as reported in Kim et al (published in 2006), herein incorporated by reference in its entirety, the effects of dimethyl sulfone on OA of the knee were evaluated. Qualified patients (n=50) were as-signed to MSM (n=25) or placebo (n=25) in a 12-week randomized, double-blind, placebo-controlled trial using computer-generated random numbers (FIG. 1).
At week 1, subjects were administered 2 g/day in two divided doses for 3 days, and then increased to 4 g/day for 4 days. […]

[2] = 2008 acute oral dosing study, pharmacokinetic blood draws (serum dimethyl sulfone levels)
Method: In a study directed by Applicant or its related affiliate in 2008, six participants received three doses of dimethyl sulfone at three acute test visits spaced one week apart. Subjects were monitored for four hours post dose, with pharmacokinetic (PK) and phamacodynamic blood draws at 0, 45, 90, 135, 180 and 240 minutes post dosing. Subjects also provided a 24-hour post-dose urine collection for assay of dimethyl sulfone and sulfate levels.
Rough estimates have been obtained for the half times of absorption (½ hour) and elimination (8 hours).

[3] = blood draws 0-240 minutes post dosing
[4] = six participants, rough estimate

For dimethyl sulfone, the serum homocysteine levels (homocysteine) was “significantly decreased; also recorded: decreases”, the “urine MDA” value (malondialdehyde (MDA)) was “decreases” and the “symptoms of pain and physical function (WOMAC subscales)” value [1] was “produced improvement in two of the three WOMAC subscales, pain and physical function”. For the same substance, the “symptoms of pain and physical function (WOMAC subscales)” value ([1]; listed as dimethyl sulfone) was “improved symptoms of pain and physical function”, the “absorption from the upper gastrointestinal tract (serum level pattern)” value [2, 3] was “fairly rapid absorption from the upper gastrointestinal tract (within an hour)” and the “elimination from the bloodstream (serum level pattern)” value [2, 3] was “slower elimination from the bloodstream (over the course of one or two days)”. For the same substance, the “half time of absorption” value [2, 4] was “½” and the “half time of elimination” value [2, 4] was ~8 h.
